In ChEMBL document CHEMBL2417387, “Development of a pharmacophore model for the catecholamine release-inhibitory peptide catestatin: virtual screening and functional testing identify novel small molecule therapeutics of hypertension” (Bioorg Med Chem, 2013) one finds IC50, Activity and inhibition data, which are given here for 21 compounds.

Active and inactive are the calls of the source. The rule behind the calls is not given here.

The nature of data set [1]: Inhibition of nicotinic cholinergic receptor in rat PC12 cells assessed as inhibition of nicotine-stimulated [3H]-norepinephrine release after 30 mins by liquid scintillation counting analysis. The conditions noted are these: PC-12. The class given is cell-based.
For data set [2], the system named is PC-12. The data set can be described thus: Cytotoxicity against rat PC12 cells assessed as cell viability at 5 to 10 uM after 24 hrs by trypan blue exclusion assay relative to control. The class given is cell-based. The conditions noted are these: pc-12, 24 h.
The test system of data set [3] is PC-12. The data set can be described thus: Noncompetitive inhibition of nicotinic cholinergic receptor in rat PC12 cells assessed as inhibition of 100 to 1000 uM nicotine-induced [3H]-norepinephrine release at 5 uM after 30 mins by liquid scintillation counting analysis. The class given is cell-based.
For data set [4], the system named is PC-12. The data set can be described thus: Inhibition of ionomycin-mediated catecholamine secretion in rat PC12 cells at 5 uM after 30 mins by liquid scintillation counting analysis. The class given is functional, cell-based.
In data set [5] the test system is PC-12. The data set can be described thus: Inhibition of ATP-induced P2X receptor activation in rat PC12 cells assessed as inhibition of catecholamine secretion at 5 uM after 30 mins by liquid scintillation counting analysis. It is filed as cell-based.
Data set [6] deals with PC-12. The experiment in a line: Inhibition of BaCl2-induced potassium channel blockade in rat PC12 cells assessed as inhibition of catecholamine secretion at 5 uM after 30 mins by liquid scintillation counting analysis. It is filed as functional, cell-based.
Data set [7] deals with PC-12. The experiment in a line: Inhibition of KCl-induced membrane depolarization in rat PC12 cells assessed as inhibition of catecholamine secretion at 5 uM after 30 mins by liquid scintillation counting analysis. The class given is functional, cell-based.
The test system of data set [8] is PC-12. The experiment in a line: Inhibition of nicotinic cholinergic receptor-mediated [3H]-norepinephrine release in rat PC12 cells after 30 mins by liquid scintillation counting analysis. The class given is cell-based.
A short description of data set [9]: (§1) Inhibition of nicotinic cholinergic receptor in rat PC12 cells assessed as inhibition of nicotine-stimulated 45Ca2+ uptake after 2 mins by liquid scintillation counting analysis. It is filed as cell-based. The following applies: PC-12, 2 min.
The subject of data set [10] is PC-12. The description is as §1. The class given is cell-based.
Data set [11] relates to Mus musculus. The data set can be described thus: Toxicity in BPH/2J mouse polygenic hypertensive model assessed as reflex tachycardia at 5 ug/g, ip measured for 24 hrs by telemetry. The class given is organism-based. The following applies: in vivo.
The subject of data set [12] is Mus musculus. The experiment in a line: Antihypertensive activity in BPH/2J mouse polygenic hypertensive model assessed as reduction in heart rate at 5 ug/g, ip measured for 24 hrs by telemetry. It is filed as functional.
Data set [13] deals with Mus musculus. The data set can be described thus: Antihypertensive activity in BPH/2J mouse polygenic hypertensive model assessed as reduction in diastolic blood pressure at 5 ug/g, ip up to 60 mins by telemetry. It is filed as functional, Artery.
The test system of data set [14] is Mus musculus. The experiment in a line: Antihypertensive activity in BPH/2J mouse polygenic hypertensive model assessed as reduction in systolic blood pressure at 5 ug/g, ip up to 60 mins by telemetry. It is filed as functional, Artery.

Regarding `CCN1CCC(CNc2cc(C)nc(NC(=N)Nc3ccc(Cl)c(Cl)c3)n2)C1` (configuration not stated), the IC50 (as a rule, the concentration needed to halve the response being measured) in [1] was found to be 0.45 µM.

For the compound `C/N=C(\NC)c1ccc(/N=C(\NC)c2ccc(/C(=N/c3ccc(/C(=N/C)NC)cc3)NC)cc2)cc1`, the half-inhibitory concentration (IC50) in [1] is 1.7 µM.

On to `CCN(CC)CC(O)CNC1=N/C(=N/C(=N)Nc2ccc(Cl)c(Cl)c2)N=C(C)C1` (configuration not stated), for which the Activity result in the data set on PC-12 [2] is listed as “Non-toxic”. For the same compound, the inhibition entry with PC-12 [3] was “Active”. The inhibition result with PC-12 [4], with PC-12 [5], with PC-12 [6], with PC-12 [7] and with PC-12 [8] was “inactive” each time. In addition, the IC50 in data set [1] was 0.68 µM.

In the case of `C/N=C(\NC)c1ccc(NC(=O)Nc2cccc(NC(=O)Nc3ccc(/C(=N/C)NC)cc3)c2)cc1`, the IC50 in [9] came out at 0.07 µM; in [1], 0.041 µM. Also, the inhibition result with PC-12 [10] is “Dose-dependent effect”.

For `C[N+](C)(C)CC[N+]1(C)Cc2c(Cl)c(Cl)c(Cl)c(Cl)c2C1`, the inhibition result in the data set on PC-12 [3] is “Active”.

With `Nc1nc(N)c2nc(CNc3ccc(C(=O)N[C@@H](CCC(=O)O)C(=O)O)cc3)cnc2n1` [AMINOPTERIN], in [1], the IC50 is more than 5 µM.

In the case of `Cc1ccnc(NS(=O)(=O)c2ccc(/N=N/c3cc(/N=N/c4ccccc4)c(N)nc3N)cc2)n1`, the IC50 in data set [1] is more than 5 µM.

Turning to `CC1(C)N=C(N)N=C(N)N1c1ccc(CNC(=O)Nc2ccccc2)cc1`, the 50% inhibitory concentration (IC50) in [1] was more than 5 µM.

Turning to `C/N=C(\N)c1ccc(/N=C(\N)c2ccc(Cl)c(/C(N)=N/c3ccc(C(=N)NC)cc3)c2)cc1`, the IC50 in data set [1] was determined as 1.8 µM.

As for `CCN1CCC(CNc2cc(C)nc(NC(=N)Nc3cc(Cl)cc(Cl)c3)n2)C1` (configuration not stated), in [1], the IC50 came out at 1.9 µM.

Consider `Cc1cc(NC(=O)NCc2ccc(N3C(N)=NC(N)=NC3(C)C)cc2)ccc1S(=O)(=O)F`, for which the half-inhibitory concentration (IC50) in [1] amounted to 0.87 µM.

Take `C/N=C(\NC)c1ccc(NC(=O)Nc2ccc(C)c(NC(=O)Nc3ccc(/C(=N/C)NC)cc3)c2)cc1`: the IC50 in data set [9] amounted to 0.1 µM; in data set [1], 0.024 µM. Also, the inhibition entry in the data set on PC-12 [10] was “Dose-dependent effect”.

Take `CNC(=O)c1cc(NC(=O)Nc2cccc(C3=NCCN3)c2)cc(NC(=O)Nc2cccc(C3=NCCN3)c2)c1`: the 50% inhibitory concentration (IC50) is 0.1 µM in data set [9] and 1 µM in data set [1]. For the same compound, the inhibition entry in the data set on PC-12 [10] was “Dose-dependent effect”. In addition, in the data set on PC-12 [2], the Activity result is recorded as “Non-toxic”. For the same compound, the inhibition entry in the data set with PC-12 [3] is “Active”. Further, the inhibition result in the data set on PC-12 [4], with PC-12 [5], in the data set with PC-12 [6], with PC-12 [7] and with PC-12 [8] was “inactive” throughout.

For the compound `CNC(=O)c1ccc(NC(=O)Nc2cccc(C3=NCCN3)c2)cc1NC(=O)Nc1cccc(C2=NCCN2)c1`, the IC50 in data set [1] was 1.4 µM.

As to `C/C(=N\NC(=N)N)c1cccc(NC(=S)Nc2cccc(/C(C)=N/NC(=N)N)c2)c1`, the Activity result in the data set with Mus musculus [11] is reported as “Non-toxic”; in the data set with Mus musculus [12], 180 bpm; in the data set on Mus musculus [13], 25 mmHg; in the data set on Mus musculus [14], 33 mmHg. The values for the half-maximal inhibitory concentration (IC50) in data set [9] and in data set [1] were 0.09 µM and 0.017 µM, respectively. In addition, in the data set with PC-12 [10], the inhibition result is “Dose-dependent effect”.

Turning to `Nc1ccc(CCCCc2nc(N)nc(N)c2-c2ccc(Cl)c(Cl)c2)cc1`, in data set [1], the half-maximal inhibitory concentration (IC50) was 2.6 µM.

Take `CCN1CCCC(Nc2cc(C)nc(NC(=N)Nc3ccc(Cl)c(Cl)c3)n2)C1` (configuration not stated): the IC50 in [1] came out at 1.1 µM.

In the case of `CCN/C(=N\c1cccc(C2=NCCN2)c1)c1ccc(/C(=N/c2cccc(C3=NCCN3)c2)NCC)cc1`, in data set [1], the IC50 stood at 1.6 µM.

`O=C(Nc1cc(C2=NCCN2)cc(C2=NCCN2)c1)Nc1cc(C2=NCCN2)cc(C2=NCCN2)c1`: the half-inhibitory concentration (IC50) in data set [1] was more than 5 µM.

Regarding `Nc1nc(N)c(/N=N/c2ccc(S(=O)(=O)Nc3ccccn3)cc2)cc1/N=N/c1ccccc1`, the half-maximal inhibitory concentration (IC50) in [1] was 2 µM.

For the compound `Nc1nc(N)c(-c2ccc(Cl)cc2)c(CCc2ccc(NC(=O)CBr)cc2)n1`, the IC50 in [1] amounted to 1.5 µM.
